Series [1] deals with C33A human cervical cancer cells. Description: C33A cervical tumor xenograft in SCID mice. Format: in vivo, CB17 SCID/SCID female mice. The conditions noted are these: for Tumor growth compared to vehicle: two-way ANOVA. The protocol: The resultant mice are a model for a human having cervical cancer.
The C33A human cervical cancer cells were maintained in RPMI supplemented with 10% inactivated fetal bovine serum and 1% penicillin-streptomycin-L-Glutamine, under 5% CO2 at 37° C., and passaged twice a week. The cells were grown at a confluency lower than 70% and then collected with Trypsin (Bio-Whittaker, Md., USA). The cells were then centrifuged and washed twice using phosphate buffered saline solution (PBS) and resuspended in PBS at 2×10^6 cells per 100 μl. Viability was examined by staining with Trypan Blue and only flasks with cell viability of greater than 95% were used for in vivo studies.
(§1) C33A cells were transplanted subcutaneously into the flank of female CB17 SCID/SCID mice. Each mouse was inoculated with a suspension of 2×10^6 tumor cells per 100 μL on day zero. The following six treatment groups of ten mice each were used: (a) a negative control group treated with intravenous (i.v.) injection of vehicle, (b) a negative control group treated with intraperitoneal (i.p.) injection of vehicle, (c) a positive control group treated with i.p. injection of Cisplatin, (d) a group treated with i.v. injection of a Compound 50, (e) a group treated with i.p. injection of Compound 50, and (f) a group treated with subcutaneous (s.c.) injection of Compound 50.
(§2) Treatment started on day thirteen after C33A cells transplantation for Compound 50 treated groups and on day fourteen for Cisplatin treated group. Compound 50 was administered i.v., i.p., and s.c. once daily for five consecutive days at a dose of 10, 15 and 30 mg/kg, respectively. Compound 50 was prepared as a working solution of 1.5 mg/mL in a vehicle solution of 20% Cremaphor EL (Sigma, St. Louis, Mo., USA), 10% Ethanol and 5% Dextrose (Abbot Laboratories, QC, Canada). The negative control groups were treated with vehicle alone. The positive control group was treated once every 3 days for fifteen days at a dose of 3.5 mg/kg. Cisplatin was formulated in PBS on each day of the injection and was administered i.p.
The mice were weighed and the tumors measured on day 13 and every 2 to 3 days after treatment commenced. Observations continued for 36 days after initial tumor implantation. The changes in body weight and in the calculated tumor volume were plotted (FIGS. 4 and 5). Statistical analysis was performed using GraphPad Prism (GraphPad Software Inc., San Diego, Calif.). Two-way ANOVA was used to determine how the treatment affected tumor growth over time. Following the two-way ANOVA, post-tests were performed using the Benferroni method to determine the statistical difference between the mean tumor-size of the two groups being compared on every day that the tumors were measured. Four animals in the negative control injected i.v. with vehicle and two animals in the group treated i.v. with Compound 50 died during the observation period. Therefore, the data collected from these animals were excluded from all calculations and the total number of animals in the groups changed to six for the negative control injected i.v. with vehicle and eight for the group treated i.v. with Compound 50.

Series [2] is described as follows: Body weight of SW480 tumor-bearing mice. The conditions noted are these: i.v. once daily for five days; 10 mg/kg (50, 50a, 50b), 50 mg/kg (74a). Format: in vivo, CB17 SCID/SCID female mice. As for the experimental part:
SW480 cells were transplanted subcutaneously into the flank of female CB 17 SCID/SCID mice. Each mouse was inoculated with a suspension of 1×10^6 tumor cells per 100 μL on day zero. The following five treatment groups of ten mice each were used: (a) a negative control group treated with intravenous (i.v.) injection of vehicle, (b) a group treated with i.v. injection of a Compound 50, (c) a group treated with i.v. injection of a Compound 50a, (d) a group treated with i.v. injection of Compound 50b, (e) a group treated with i.v. injection of Compound 74a.
Treatment started on day twelve after SW480 cells transplantation and Compounds 50, 50a, 50b and 74a were administered i.v. once daily for five consecutive days at a dose of 10, 10, 10 and 50 mg/kg, respectively. Compound 50, 50a and 50b were prepared as a working solution of 1.5 mg/mL in a vehicle solution of 20% Cremaphor EL (Sigma, St. Louis, Miss., USA), and 10% Ethanol. Compound 74a was prepared as a working solution of 5 mg/mL in a vehicle solution of 5% Dextrose (Abbot Laboratories, QC, Canada). The negative control groups were treated with vehicle solution of 20% Cremaphor EL and 10% Ethanol alone.
(§3) The mice were weighed and the tumors measured on day 12 and every 2 to 3 days after treatment commenced. Observations continued for 23 days after initial tumor implantation. The changes in body weight and in the calculated tumor volume were plotted (FIGS. 9 and 10). Statistical analysis was performed using GraphPad Prism (GraphPad Software Inc., San Diego, Calif.). Two-way ANOVA was used to determine how the treatment affected tumor growth over time. Following the two-way ANOVA, post-tests were performed using the Benferroni method to determine the statistical difference between the mean tumor-size of the two groups being compared on every day that the tumors were measured.

Series [3] is classed as in vivo, CB17 SCID/SCID female mice. The protocol: as §1, §2
as §3, with “13” for “12”, “36” for “23”, “4” for “9”, “5).” for “10).”, “measured. […]” for “measured.”

Series [4] has as its system Saccharomyces cerevisiae strain W303a. Description: Yeast growth inhibition (OD600). Format: cell-based. Conditions: dilution series, YEP with glucose, galactose or glycerol, 30° C.; dose-dependent. As for the experimental part:
Yeast cells were first cultured overnight in 10 mL of YEP glucose-containing medium at 30° C. The following day, 5 μL of the overnight culture (5–6×10^3 cells) was added to 100 μL of YEP media supplemented with 2% of one of the three carbon sources mentioned above in a 96-well microtitre plate. To these cultures a dilution series of Compound 50 was added. Compound 50 was prepared as a stock solution in 100% dimethyl sulfoxide (DMSO) at a concentration of 10 mM. Serial dilutions were prepared in distilled water. The final DMSO concentration in each well was 0.5%. Yeast cells were grown at 30° C. and cell growth was monitored by reading the OD600 (optical density at 600 nm) with a Tecan ULTRA plate reader (TECAN U.S. Inc., Research Triangle Park, N.C., USA). […] Accordingly, Compound 50, an illustrative Diterpenoid Compound, is useful for inhibiting the growth of a fungus or treating a fungal infection.

Where two headings read alike, the source gives them in different places.

On to `COc1ccc2c(c1)C1(C)C=CC(=O)C(C)(C)C1=C(O)C2=O` (racemic) [Compound 50], for which the “Tumor growth compared to vehicle” value in series [1] (i.p. 15 mg/kg once a day for five days), in series [1] (i.v. 10 mg/kg once a day for five days) and in series [1] (s.c. 30 mg/kg once a day for five days) was “significant reduction (p<0.001)” each time. The “Mean tumor-size compared to vehicle” value is “significantly (p<0.05) smaller mean tumor-size” in series [1] (i.p., day 34 and day 36); “significantly (p<0.05) smaller mean tumor-size” in series [1] (i.v. 10 mg/kg, day 36); “significantly smaller mean tumor-size” in series [1] (s.c., day 34 (p<0.01) and day 36 (p<0.001)). The “Change in body weight” value is “non-significant change in body weight” in series [2] and “non-significant change in body weight” in series [3] (Compound 50 i.v., i.p. or s.c. 10, 15, 30 mg/kg once daily for five days). In addition, the “Animals died during the observation period” value in series [3] (i.v. group of ten mice, four died in the i.v. vehicle group) is recorded as “two animals”. The “Growth of Saccharomyces cerevisiae” value in series [4] was “significantly inhibited growth”.

(Values after US7230139B2, “Diterpenoid compounds, compositions thereof and their use as anti-cancer or anti-fungal agents” (priority 2004, dated 2007).)
